Where two headings read alike, the source gives them in different places.

Assay [1] concerns the target T1, LYP (Homo sapiens, UniProt Q9Y2R2).
T1 sequence (Q9Y2R2 24-289 limits assumed): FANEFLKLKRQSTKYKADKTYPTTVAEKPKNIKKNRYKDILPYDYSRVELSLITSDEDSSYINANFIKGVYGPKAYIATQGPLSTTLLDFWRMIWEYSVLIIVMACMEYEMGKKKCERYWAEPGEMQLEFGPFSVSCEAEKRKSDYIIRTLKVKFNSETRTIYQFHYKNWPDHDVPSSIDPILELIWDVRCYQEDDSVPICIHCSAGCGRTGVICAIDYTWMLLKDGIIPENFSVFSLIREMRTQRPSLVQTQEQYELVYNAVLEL
The format is biochemical. The conditions noted are these: for kcat: pH 6.5.

The target of assay [2] is T1, LYP. Nature of the assay: LYP inhibition, follow-up of the 1536-well HTS, pCAP or OMFP substrate. The format is biochemical.
For assay [3], the target named is T1, LYP. The conditions noted are these: Spectrum collection screen, cited from earlier work.

With Ac-ARLIEDNE-pCAP-TAREG-NH2 [Peptide 2], on LYP [1], the Michaelis constant (Km) was found to be 200 ± 60 µM, the kcat/Km is on record as 27,000,000 M^−1s^−1 and the turnover number (kcat) worked out at 5400 ± 1000 s⁻¹.

`O=C(O)COc1ccc(/C=N/NC(=O)c2ccc(-c3csc(Nc4ccc(Cl)cc4)n3)cc2)cc1` [CID9595032]: the IC50 at LYP [2] (read-out: IC50, OMFP substrate, assayed using the OMFP substrate) amounted to 1.5 µM; on LYP [2] (read-out: IC50, pCAP substrate, assayed using the pCAP substrate), 0.53 µM.

Consider `Cc1ccc(C(=O)Nc2ccc(S(=O)(=O)O)c3cc(S(=O)(=O)O)cc(S(=O)(=O)O)c23)cc1NC(=O)c1cccc(NC(=O)Nc2cccc(C(=O)Nc3cc(C(=O)Nc4ccc(S(=O)(=O)O)c5cc(S(=O)(=O)O)cc(S(=O)(=O)O)c45)ccc3C)c2)c1` [suramin], for which the “inhibition of LYP activity, DiFMUP-based screen” value on LYP [3] (DiFMUP as substrate) is given as about 40%. In addition, on LYP [3] (peptide 2 as substrate), the “inhibition of LYP activity, peptide-based screen” value was “nearly all”.

With Ac-ARLIEDNE-pY-TAREG-NH2 [Peptide 2a], on LYP [1], the Michaelis constant (Km) came out at 130 ± 20 µM, the kcat/Km was 52,000,000 M^−1s^−1 and the kcat was 6700 ± 400 s⁻¹.

The values above are taken from PMC3899110 (Methods (San Diego, Calif.), 2013).
